From the Kinase Knowledgebase extract (Sharma et al. 2016) come the findings set out here.

In assay [1] the target is PIK3CA (human) (UniProt P42336). In words: Assessment of PIK3CA Kinase Activity in NZOV9 Cells.
For assay [2] the target is unchanged. In words: Assessment of PIK3CA Kinase Activity in NZB5 Cells.

Chain of PIK3CA (human) (P42336 whole entry, looked up): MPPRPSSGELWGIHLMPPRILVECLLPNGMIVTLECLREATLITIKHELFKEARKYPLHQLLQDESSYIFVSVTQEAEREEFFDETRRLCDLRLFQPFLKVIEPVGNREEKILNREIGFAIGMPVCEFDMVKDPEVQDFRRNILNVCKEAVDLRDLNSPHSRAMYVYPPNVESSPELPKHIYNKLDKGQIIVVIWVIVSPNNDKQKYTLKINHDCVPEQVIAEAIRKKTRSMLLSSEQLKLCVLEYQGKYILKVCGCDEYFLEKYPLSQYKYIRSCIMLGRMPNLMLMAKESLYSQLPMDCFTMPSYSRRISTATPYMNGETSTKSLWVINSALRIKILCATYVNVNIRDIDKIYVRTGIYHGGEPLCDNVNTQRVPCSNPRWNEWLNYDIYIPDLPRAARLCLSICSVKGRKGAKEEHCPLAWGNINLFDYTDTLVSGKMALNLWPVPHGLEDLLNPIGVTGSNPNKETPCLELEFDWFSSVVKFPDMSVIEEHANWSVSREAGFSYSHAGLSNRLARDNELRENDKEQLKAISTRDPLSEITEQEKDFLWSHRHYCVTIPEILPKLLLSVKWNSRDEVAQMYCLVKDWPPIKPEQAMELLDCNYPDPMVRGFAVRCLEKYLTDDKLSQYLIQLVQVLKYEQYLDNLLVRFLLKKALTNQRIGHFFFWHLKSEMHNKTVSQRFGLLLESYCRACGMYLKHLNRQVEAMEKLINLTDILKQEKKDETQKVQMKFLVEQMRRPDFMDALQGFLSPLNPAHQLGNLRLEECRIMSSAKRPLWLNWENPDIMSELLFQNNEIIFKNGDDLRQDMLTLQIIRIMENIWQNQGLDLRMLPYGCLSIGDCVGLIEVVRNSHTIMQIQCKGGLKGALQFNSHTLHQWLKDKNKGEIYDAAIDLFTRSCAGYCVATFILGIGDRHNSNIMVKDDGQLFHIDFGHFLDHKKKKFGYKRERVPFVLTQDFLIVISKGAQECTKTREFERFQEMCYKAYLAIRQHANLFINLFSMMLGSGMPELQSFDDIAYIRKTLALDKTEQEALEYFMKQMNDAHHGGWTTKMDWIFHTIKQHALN

The IC50 is the concentration needed to halve the response being measured. Low readings indicate higher potency, high ones lower potency. `CN(C)c1ccc([N+](=O)[O-])cc1S(=O)(=O)N(C)N=Cc1cnn2ccc(C#N)cc12`: the IC50 in assay [1] is 0.1 µM. Take `Cc1c([N+](=O)[O-])cccc1S(=O)(=O)N(C)N=Cc1cnn2ccc(C#N)cc12`: the IC50 in assay [2] and in assay [1] was above 20 µM each time. For the compound `Cc1ccccc1S(=O)(=O)N(C)N=Cc1cnn2ccc(C#N)cc12`, the IC50 in assay [2] is above 20 µM.

As for `Cc1ccc(C(=O)O)cc1S(=O)(=O)N(C)N=Cc1cnn2ccc(C#N)cc12`, the IC50 in assay [2] and in assay [1] was above 20 µM each time.

As for `CC(=O)Nc1ccc(C)c(S(=O)(=O)N(C)N=Cc2cnn3ccc(C#N)cc23)c1`, the IC50 in assay [2] and in assay [1] was above 20 µM in each case. For the compound `Cc1ccc([N+](=O)[O-])cc1C(=O)N(C)N=Cc1cnn2ccc(C#N)cc12`, the IC50 in assay [2] and in assay [1] was above 20 µM in each case. For `Cc1ccc(F)cc1S(=O)(=O)N(C)N=Cc1cnn2ccc(C#N)cc12`, the IC50 in assay [2] is above 20 µM. Consider `Cc1cc([N+](=O)[O-])ccc1S(=O)(=O)N(C)N=Cc1cnn2ccc(C#N)cc12`, for which the IC50 in assay [2] and in assay [1] was above 20 µM each time.
